In BindingDB's records for PubMed 34286973 (University of Chinese Academy of Sciences, 2021) one finds Ki data, which are given here for one compound.

Structures are written as SMILES.

The assay addresses E3 ubiquitin-protein ligase Mdm2 (Homo sapiens, UniProt Q00987). Kind of assay: Binding affinity to human MDM2 assessed as dissociation constant.

E3 ubiquitin-protein ligase Mdm2, sequence (Q00987 whole entry): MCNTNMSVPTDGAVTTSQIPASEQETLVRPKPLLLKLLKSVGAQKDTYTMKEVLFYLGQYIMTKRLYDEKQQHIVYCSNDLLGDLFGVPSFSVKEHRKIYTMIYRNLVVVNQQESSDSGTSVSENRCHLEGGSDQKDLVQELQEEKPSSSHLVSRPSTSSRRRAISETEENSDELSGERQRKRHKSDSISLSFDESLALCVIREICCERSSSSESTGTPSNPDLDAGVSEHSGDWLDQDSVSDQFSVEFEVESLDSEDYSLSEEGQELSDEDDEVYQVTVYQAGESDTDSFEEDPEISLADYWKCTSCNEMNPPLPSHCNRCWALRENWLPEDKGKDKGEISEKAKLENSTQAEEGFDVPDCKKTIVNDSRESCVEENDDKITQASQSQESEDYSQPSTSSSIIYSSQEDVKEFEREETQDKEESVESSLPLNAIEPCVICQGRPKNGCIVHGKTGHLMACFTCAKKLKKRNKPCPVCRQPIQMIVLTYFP

In the case of `O=C(CN(Cc1ccc(Cl)cc1)C(=O)c1cc2ccccc2[nH]1)NC1CCCCC1`, the Ki (usually the equilibrium dissociation constant of an inhibitor or competing ligand from its target) turned out to be 54 µM.
